Measured values as given in PMC12396409, “Screening and hit evaluation of a microbial metabolite library against the pathogenic Plasmodium falciparum and Toxoplasma gondii parasites” (International Journal for Parasitology: Drugs and Drug …, 2025).
Like-named read-outs stand apart in the source and are kept apart here.

Columns and labels:
[1] = test system: T. gondii RH strain (RH-Tub-eYFP) tachyzoites; assay: microbe, parasite or virus in culture; format: cell-based, Toxoplasma gondii; conditions: 72 h; for Tg_72h_%Growth_Rep1 / Tg_72h_%Growth_Rep2 / percent parasite growth at 2 µg/mL: T. gondii, screen at 2 μg/mL; for percent parasite growth at 2 µg/mL: Toxoplasma gondii
[2] = test system: P. falciparum 3D7 parasites; assay: P. falciparum growth inhibition assay, 1-cycle (72 h treatment), SYBR DNA staining (library screen at 2 μg/mL and dose-response); format: cell-based, Plasmodium falciparum; conditions: for Pf_72h_%Growth_Rep1 / Pf_72h_%Growth_Rep2 / activity at 2 µg/mL: P. falciparum, screen at 2 μg/mL; for activity at 2 µg/mL: Plasmodium falciparum
[3] = test system: P. falciparum 3D7 parasites; assay: P. falciparum growth inhibition assay, 2-cycle (120 h treatment), delayed-death screen and dose-response; format: cell-based, Plasmodium falciparum; conditions: P. falciparum, 120 h, screen at 2 μg/mL; for activity at 2 µg/mL: Plasmodium falciparum
[4] = replicate 1, read-out: Tg_72h_%Growth_Rep1
[5] = replicate 2, read-out: Tg_72h_%Growth_Rep2

SMILES | Tg_72h_%Growth_Rep1 ([1]; replicate 1) [%] | Tg_72h_%Growth_Rep2 ([1]; replicate 2) [%] | Pf_72h_%Growth_Rep1 ([2]; 72 h, replicate 1) [%] | Pf_72h_%Growth_Rep2 ([2]; 72 h, replicate 2) [%] | Pf_120h_%Growth_Rep1 ([3]; replicate 1) [%] | Pf_120h_%Growth_Rep2 ([3]; replicate 2) [%] | other results
CC(=O)N[C@H](CO)[C@H](O)c1ccc([N+](=O)[O-])cc1 [Corynecin I] | 123.69 | 87.57 | 83.09 | 83.78 | 83.28 | 82.34 | 
CCC(=O)N[C@H](COC(C)=O)[C@H](O)c1ccc([N+](=O)[O-])cc1 [Corynecin V] | 157.61 | 102.11 | 87.31 | 90.66 | 81.24 | 97.66 | 
O=C(O)/C=C/c1ccc(O)cc1 [Coumaric acid, p-] | 117.43 | 104.71 | 85.52 | 91.08 | 65.95 | 100.33 | 
COc1ccc2c3c(c4cc(OC)c(OC)cc4c2c1)C[C@H]1CCCCN1C3 [Cryptopleurine] | 6.11 | 2.53 | 8.09 | -1.65 | 9.09 | 3.06 | activity in the screen against T. gondii ([1]; 2 μg/mL, active = ≥80 % growth inhibition): activity against both parasites; IC50 ([1]; RH strain, mean ± S.D., n ≥ 3, read-out: IC50 (μM), T. gondii (converted)): 0.011 µM; Screen (T. gondii) ([1]; library screen at 2 μg/mL, RH strain): A, A; activity in the screen against P. falciparum ([2]; 2 μg/mL, 72 h, active = ≥80 % growth inhibition): activity against both parasites; IC50 ([2]; 3D7, 72 h treatment, mean ± S.D., n ≥ 3, read-out: IC50 (μM), P. falciparum): 0.008 ± 0.003 µM; Screen (P. falciparum) ([2]; library screen at 2 μg/mL, 3D7, 72 h, DD from the 120 h timepoint): A, A
CC1CCCCCC(=O)c2c(O)cc(O)cc2CC(=O)O1 (stereo not drawn) [Curvularin] |  |  |  |  |  |  | percent parasite growth at 2 µg/mL [1, 4]: 143%; percent parasite growth at 2 µg/mL [1, 5]: 80.4%; activity at 2 µg/mL ([2]; 3D7, 72 h, replicate 1, read-out: Pf_72h_%Growth_Rep1): 94%; activity at 2 µg/mL ([2]; 3D7, 72 h, replicate 2, read-out: Pf_72h_%Growth_Rep2): 47.8%; activity at 2 µg/mL ([3]; 3D7, replicate 1, read-out: Pf_120h_%Growth_Rep1): 93.3%; activity at 2 µg/mL ([3]; 3D7, replicate 2, read-out: Pf_120h_%Growth_Rep2): 122%
C[C@H]1NC(=O)[C@@H]2CCCN2C1=O [Cyclo(D-Ala-L-Pro)] | 121.18 | 102.00 | 84.19 | 89.96 | 102.13 | 92.71 | 
CC(C)C[C@@H]1NC(=O)[C@@H]2CCCN2C1=O [Cyclo(L-Leu-L-Pro)] | 124.64 | 91.02 | 83.89 | 81.36 | 82.10 | 83.93 | 
CC(C)C[C@@H]1NC(=O)[C@H](Cc2c[nH]c3ccccc23)NC1=O [Cyclo(L-Leu-L-Trp)] | 106.88 | 106.90 | 84.12 | 86.68 | 80.44 | 87.76 | 
O=C1N[C@@H](Cc2ccccc2)C(=O)N[C@H]1Cc1ccccc1 [Cyclo(L-Phe-L-Phe)] | 128.27 | 97.95 | 87.79 | 85.43 | 99.78 | 97.44 | 
O=C1N[C@@H](Cc2ccccc2)C(=O)N2CCC[C@@H]12 [Cyclo(L-Phe-L-Pro)] | 128.14 | 102.31 | 92.82 | 90.35 | 82.75 | 99.85 | 
CC(C)[C@@H]1NC(=O)[C@H](Cc2ccccc2)NC1=O [Cyclo(L-Phe-L-Val)] | 132.95 | 103.43 | 85.66 | 90.47 | 67.70 | 97.99 | 
O=C1N[C@@H](Cc2ccc(O)cc2)C(=O)N2CCC[C@@H]12 [Cyclo(L-Pro-L-Tyr)] | 132.28 | 86.77 | 91.38 | 88.30 | 89.64 | 119.86 | 
CC(C)[C@@H]1NC(=O)[C@@H]2CCCN2C1=O [Cyclo(L-Pro-L-Val)] | 147.92 | 100.59 | 85.07 | 82.22 | 101.90 | 92.75 | 
O=C1N[C@@H](Cc2c[nH]c3ccccc23)C(=O)N[C@H]1Cc1c[nH]c2ccccc12 [Cyclo(L-Trp-L-Trp)] | 161.12 | 99.00 | 85.34 | 84.68 | 96.17 | 91.69 | 
CC(C)[C@@H]1NC(=O)[C@H](Cc2ccc(O)cc2)NC1=O [Cyclo(L-Tyr-L-Val)] | 164.57 | 103.47 | 84.64 | 82.94 | 98.73 | 89.51 | 
C=C1NC(=O)[C@H](C(C)C)NC1=O [Cyclo(delta-Ala-L-Val)] | 112.17 | 87.98 | 78.49 | 81.94 | 80.27 | 78.77 | 
COc1ccc2c3c([nH]c2c1)C(C)(C)C=CN1C(=O)[C@H](C)NC(=O)/C1=C/3 [Cycloechinulin] | 136.66 | 103.07 | 63.19 | 64.05 | 51.02 | 53.71 | 
CN1C(=O)c2ccccc2NC(=O)[C@]12O[C@@H]2c1ccccc1 [Cyclopenin] | 136.91 | 103.54 | 83.83 | 77.00 | 83.48 | 80.30 | 
CN1C(=O)c2ccccc2NC(=O)[C@@H]1Cc1ccccc1 [Cyclopeptine] | 139.33 | 93.22 | 53.40 | 63.93 | 15.88 | 61.17 | 
CC(=O)C1=C(O)[C@@H]2[C@H]3c4c[nH]c5cccc(c45)C[C@H]3C(C)(C)N2C1=O [Cyclopiazonic acid] |  |  |  |  |  |  | percent parasite growth at 2 µg/mL [1, 4]: 0.36%; percent parasite growth at 2 µg/mL [1, 5]: 3.22%; activity at 2 µg/mL ([2]; 3D7, 72 h, 72 h, replicate 1, read-out: Pf_72h_%Growth_Rep1): 12.6%; activity at 2 µg/mL ([2]; 3D7, 72 h, 72 h, replicate 2, read-out: Pf_72h_%Growth_Rep2): 7.26%; activity at 2 µg/mL ([3]; 3D7, 120 h, replicate 1, read-out: Pf_120h_%Growth_Rep1): 14%; activity at 2 µg/mL ([3]; 3D7, 120 h, replicate 2, read-out: Pf_120h_%Growth_Rep2): 9.35%
